Results published in ChEMBL document CHEMBL5120862, “Novel non-covalent LSD1 inhibitors endowed with anticancer effects in leukemia and solid tumor cellular models” (Eur J Med Chem, 2022).
pIC50, pKi: −log10 of the molar value. Active and inactive are the calls of the source. No cut-off for these calls is given here.

Columns and labels:
THP-1 = test: Antiproliferative activity against human THP-1 cells assessed as inhibition of cell growth incubated for 144 hrs by CellTiter-Glo luminescent cell viability assay; format: functional, cell-based; details: THP-1, 144 h
RD = test: Antiproliferative activity against human RD cells assessed as reduction in live cells at 2 uM incubated for 72 hrs by calceinAM/propidium iodide staining based fluorescence microscopy; format: functional, cell-based
[1] = Cytotoxicity against HMEC cells assessed as residual cell viability at 0.5 uM incubated for 72 hrs by MTT assay relative to control; format: toxicity, cell-based; details: human, read-out: Activity
[2] = target: T1, Histone-lysine N-methyltransferase EHMT2 (Homo sapiens, UniProt Q96KQ7); test: Inhibition of G9a (unknown origin) assessed as reduction in substrate methylation using histone H3 and SAM as substrate measured after 15 to 60 mins by microfluidic capillary electrophoresis analysis
T1 sequence (Q96KQ7 whole entry): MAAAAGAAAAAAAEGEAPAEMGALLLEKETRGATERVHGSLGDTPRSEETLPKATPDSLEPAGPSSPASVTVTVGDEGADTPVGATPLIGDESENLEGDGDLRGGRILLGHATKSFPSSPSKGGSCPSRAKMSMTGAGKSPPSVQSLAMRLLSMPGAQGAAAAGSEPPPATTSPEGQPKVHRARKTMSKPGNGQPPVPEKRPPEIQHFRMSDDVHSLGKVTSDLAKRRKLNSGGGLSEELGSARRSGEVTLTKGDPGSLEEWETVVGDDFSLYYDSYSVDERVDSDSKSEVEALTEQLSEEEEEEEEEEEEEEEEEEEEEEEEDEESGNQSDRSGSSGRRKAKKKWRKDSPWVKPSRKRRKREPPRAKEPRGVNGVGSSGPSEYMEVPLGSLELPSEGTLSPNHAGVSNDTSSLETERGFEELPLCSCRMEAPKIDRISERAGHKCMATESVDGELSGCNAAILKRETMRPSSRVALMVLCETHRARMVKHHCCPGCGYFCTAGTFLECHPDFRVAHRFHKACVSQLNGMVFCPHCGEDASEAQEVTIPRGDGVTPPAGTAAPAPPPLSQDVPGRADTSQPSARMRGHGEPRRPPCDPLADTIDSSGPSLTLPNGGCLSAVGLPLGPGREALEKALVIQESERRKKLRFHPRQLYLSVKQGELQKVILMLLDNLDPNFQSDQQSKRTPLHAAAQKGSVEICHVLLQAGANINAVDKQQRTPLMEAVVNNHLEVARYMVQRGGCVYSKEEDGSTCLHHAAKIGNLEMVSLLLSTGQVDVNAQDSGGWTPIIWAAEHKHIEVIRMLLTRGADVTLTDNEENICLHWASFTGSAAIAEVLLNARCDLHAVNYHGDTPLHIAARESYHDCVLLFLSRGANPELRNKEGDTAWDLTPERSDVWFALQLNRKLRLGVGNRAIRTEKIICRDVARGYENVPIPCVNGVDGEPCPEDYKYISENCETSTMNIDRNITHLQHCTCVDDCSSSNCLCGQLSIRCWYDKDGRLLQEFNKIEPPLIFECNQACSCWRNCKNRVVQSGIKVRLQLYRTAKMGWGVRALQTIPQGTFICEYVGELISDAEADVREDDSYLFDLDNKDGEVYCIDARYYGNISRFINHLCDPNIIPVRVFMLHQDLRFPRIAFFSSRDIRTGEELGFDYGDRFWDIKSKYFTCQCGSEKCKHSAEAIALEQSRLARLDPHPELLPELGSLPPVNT

pIC50 (THP-1): 6.89 | pKi [2]: 4.40
SMILES: COc1cc2c(NC3CCN(Cc4ccccc4)CC3)nc(NCCCN(C)C)nc2cc1OCc1ccccc1
Activity (RD): Active | viability at 72 h, 0.5 µM [1]: 93%
